Experiments:
[1] = test system: arthritis in the MRL/1pr mouse; assay: Transcutaneous PDT of arthritis, ankle width; format: in vivo; conditions: 0.5 mg/kg i.v.
Experimental: Arthritis in the MRL/1pr mouse strain was enhanced by giving 2 intradermal injections (thoracic and inguinal sites) with 0.05 ml of complete Freunds adjuvant containing 10 mg/ml heat-inactivated M. tuberculosis. PDT was given on days 0, 10 and 20 following CFA treatment. PDT was carnied out as follows; 3 groups of MRL/1pr mice were injected intravenously with B-B3 at 0.5 mg/kg (copolymer or liposomal formulations), after which they were protected from light. The third group was injected with copolymer alone at an equivalent copolymer concentration to that found in the formulation. An hour later, they were exposed to light at 80 J/cm^2 for […] (8 mW/cm^2).
Ankle width measurements were taken every 5 days prior to PDT treatment.

[2] = Optimization of B-B3 incorporation in 10% w/v P123; format: physicochemical
Experimental: Using formulation methods described in Example 5, the aim was to incorporate 2 mg/ml of B-B3 into 10% w/v P123. It was shown by this method that the B-B3 can typically be incorporated at ˜1.8 mg/ml drug (based on absorbance readings and a molar extinction coefficient of 30425) 24 h post-hydration. This translates to approximately 10% drug loss. Unincorporated drug undergoes aggregation in aqueous solutions, and is characterized by the appearance of a 730 nm absorbance peak. Although the formulations can be made completely aggregate free by centrifugation or sterile filtration through 0.2 μm filters, this adds another step in the manufacturing process, which can be avoided by increasing the copolymer:drug ratio.

[3] = BPD-MA/F127 deposited on lactose: hydration and 0.2 μm filtration; format: physicochemical; conditions: 5% w/v and 10% w/v F127 deposited on lactose, hydrated in water
Experimental: In this experiment the deposition of the photosensitizer BPD-MA with the block copolymer Pluronic® F127 onto the sugar lactose was examined. Formulations containing 5% (w/v) and a 10% (w/v) F127 were tested. 0.5 g lactose and 10 mg BPD-MA were added to two rotary evaporation flasks. A stock solution of […] F127 was prepared in CH2Cl2. 1.25 ml (for 5% w/v) and 2.5 ml (for 10% w/v) F127 stock solution was added to each flask. The final volume in each flask was made up to 5.0 ml with CH2Cl2 and the components mixed to ensure complete dissolution. The solvent was removed by rotary evaporation at 50° C., and the flask left under vacuum for a further 15 min at 23° C. Micro-thin film deposits were scraped from the walls and hydrated in 5 ml water at 50° C. The formulations were filtered twice using 0.2 μm syringe filters (Acrodisc, polysulphone).

[4] = Vesicle size of liposomal BPD-MA (conventional and lactose micro-thin film); format: physicochemical
Experimental: For the standard laboratory preparation the liposomal bilayer components of 20 mg BPD-MA, 65 mg egg phosphatidyl glycerol (EPG) and 94 mg dimyristoyl phosphatidylcholine (DMPC), are combined in a round bottom flask and dissolved in 10 ml methylene dichloride (CH2Cl2). […]. The solvent is removed using standard rotary evaporation (Rotavapor R-124 and Buchi B171 Vacobox pump) leaving a thin film of the bilayer components on the flask wall. Once the thin film is prepared, it is hydrated using 10 ml iso-osmolar lactose (10% w/v) to give a final concentration of 2 mg/ml BPD-MA. Size reduction is carried out by consecutive extrusions through 400 nm, 200 nm, and finally 100 nm pore polycarbonate membranes (5 times through each) under high pressure. […] The final product was lyophilized and can be reconstituted prior to use by addition of water.
10 mg BPD-MA was combined with 32.5 mg phosphatidyl glycerol (EPG) and 47 mg dimyristoyl phosphatidylcholine (DMPC), and dissolved in 5 ml CH2Cl2. 2.5 ml of this solution (containing 5 mg BPD-MA) was then added to […] lactose in a rotary evaporator flask. The solvent was removed under rotary evaporation at 50° C. The film deposited on the glass wall was hydrated by addition of 2.5 ml warm distilled water (60° C.) with swirling. The hydrated material was examined under the microscope. Size reduction was carried out by extrusion of the hydrated material through 400, 200 and 100 nm pore polycarbonate membranes (5× through each) as described in Example 20.
In this experiment the effect of replacing CH2Cl2 with ethanol as a solvent for the sugar proliposomal formulation of photosensitizer and phospholipids was examined. The experiment was carried out as described in Example 21 except with the following changes: 20 mg BPD-MA was combined with 65 mg EPG and 94 mg DMPC, and dissolved in a total volume of 20 ml ethanol with occasional warming in 50° C. water bath. Ethanol was removed under rotary evaporation at 50° C., leaving BPD-MA/lipid coated lactose crystals evenly deposited onto flask wall. Flask was removed from the temperature bath, and left under vacuum for 10 min. The contents of the flask were scraped and hydrated by addition of 10 ml distilled water (60° C.) with swirling. The hydrated material was examined under the microscope and the MLV diameter was measured using laser light scattering on a NICOMP™ 370 Submicron Particle Sizer. Extrusion was then carried out as described in Example 20.
The experimental procedure was carried out was as described in Example 22, with the exception of the following changes. The liposomal bilayer constituents, 32.5 mg of EPG and 47 mg of DMPC, were dissolved in 2 ml ethanol, instead of 20 ml. The solution was warmed to 50° C. in a water bath. This was followed by addition of 10 mg BPD-MA, and the total volume was made up to 4 ml to ensure complete dissolution (2.5 mg/ml final concentration). 0.5 g of lactose was added to the round bottom flask. The solvent was removed by rotary evaporation, and the flask removed from the water bath, and left under vacuum for 1.5 h. For hydration, 5 ml of pre-warmed distilled water (60° C.) was added to flask with swirling. Extrusion of the solution and sizing of the vesicles was carried out as described in Example 22.

[5] = liposomal formulation, light 80 J/cm^2

SMILES | Control of inflammation (increase in ankle swelling) ([1]; copolymer formulation, light 80 J/cm^2 1 h later, PDT days 0, 10, 20) | Control of inflammation (ankle swelling), after day 25 [1, 5] | Control of inflammation (ankle swelling), earlier part of the study [1, 5] | Drug loss ([2]; 2 mg/ml added) | Drug incorporated ([2]; 2 mg/ml added, 24 h post-hydration) | Drug incorporation ([2]; final drug concentration 1 mg/ml) | Drug loss on filtration through 0.2 μm filters [3] | Diameter of MLVs ([4]; hydration of conventional thin films) | Mean diameter of the MLVs ([4]; lactose micro-thin film from ethanol, 92.44% by volume) | Diameter of unilamellar vesicles after extrusion, smaller population ([4]; lactose micro-thin film, 20 ml ethanol, 23.17% by volume) | Diameter of unilamellar vesicles after extrusion, larger population ([4]; lactose micro-thin film, 20 ml ethanol, 76.83% by volume) | Mean diameter of unilamellar vesicles, smaller population ([4]; lactose micro-thin film, reduced ethanol volume, 29.49% by volume) | Mean diameter of unilamellar vesicles, larger population ([4]; lactose micro-thin film, reduced ethanol volume, 70.5% by volume)
C=Cc1c(C)c2cc3nc(cc4[nH]c(cc5nc(cc1[nH]2)C1(C)C5=CC=C(C(=O)O)C1C(=O)OC)c(C)c4CCC(=O)OC)C(CCC(=O)OC)=C3C (stereo not shown) [B-B3] | highly effective in controlling the inflammation | exacerbation of the inflammatory condition | better suppression of the inflammation compared to the controls | approximately 10% | ~1.8 mg/mL | complete incorporation of all added drug |  |  |  |  |  |  | 
C=Cc1c(C)c2cc3nc(cc4[nH]c(cc5nc(cc1[nH]2)C(C)=C5CCC(=O)O)c(CCC(=O)OC)c4C)[C@@]1(C)C3=CC=C(C(=O)OC)[C@H]1C(=O)OC [BPD-MA, benzoporphyrin derivative mono-acid-ring A, reference compound] |  |  |  |  |  |  | no drug loss | > 1 μm | 690 nm | 47.9 nm | 110.4 nm | 58.4 nm | 132.4 nm
